Assay results reported in PubChem BioAssay AID1996.
Values after ≈ are worked out from the molar mass of the structure shown.

conditions: buffer; pH 7.4; 200.0 µM

Q: For `CC1(C)Cc2c(C#N)c(N)n(-c3ccccc3)c(=S)c2CO1`, which solubility kinetic is on record?
A: > 46.7 µg/mL

Q: Which solubility kinetic does the source give for `CC(=O)c1cccc(NC(=O)N2CCC(NC(=O)c3ccco3)CC2)c1` here?
A: 51.6 µg/mL (≈ 145 µM)

Q: For `CC(CCc1ccccc1)NC(=O)C1CCC1` (stereo unspecified), which solubility kinetic is on record?
A: > 34.7 µg/mL

Q: Which solubility kinetic does the source give for `CC(C)(Oc1ccc(Cl)cc1)C(=O)NC1CCCCC1` here?
A: 3.9 µg/mL (≈ 13.2 µM)

Q: With `O=C(NCCc1c[nH]c2ccccc12)C(=O)NCC1CCCO1` (stereo unspecified) as the molecule, how does the solubility kinetic read?
A: 9 µg/mL (≈ 28.5 µM)

Q: For `CC1c2cc3c(cc2CCN1CC(=O)Nc1ccccc1)OCCCO3` (stereo unspecified), which solubility kinetic is on record?
A: 3.9 µg/mL (≈ 11.1 µM)

Q: Which solubility kinetic does the source give for `CCOc1ccc2ccccc2c1C(=O)N[C@@H]1C(=O)N2[C@@H]1SC(C)(C)[C@@H]2C(=O)[O-].[Na+]` here?
A: > 65.5 µg/mL

Q: Which solubility kinetic does the source give for `CC(=O)c1cn(N2CCCCC2)c(=O)[nH]c1=O` here?
A: > 35.6 µg/mL

Q: Which solubility kinetic does the source give for `COc1cccc(C2N(Cc3ccccc3)C(=O)C2(F)F)c1OC` (stereo unspecified) here?
A: 15.2 µg/mL (≈ 45.6 µM)

Q: For `COC(=O)c1ccc2nc(-c3ccc(S(C)(=O)=O)cc3)cn2c1`, which solubility kinetic is on record?
A: 2 µg/mL (≈ 6.05 µM)

Q: Which solubility kinetic does the source give for `COc1ccc(Nc2c3c(nc4ccccc24)CCC3)c(OC)c1` here?
A: > 48.1 µg/mL

Q: With `CC(C)(C)c1ccc(N2C(=O)CSC2c2cccnc2)cc1` (stereo unspecified) as the molecule, how does the solubility kinetic read?
A: 43 µg/mL (≈ 138 µM)

Q: Which solubility kinetic does the source give for `COc1ccc(CCNC(=O)c2cc3cc(F)ccc3nc2C)cc1OC` here?
A: 2.3 µg/mL (≈ 6.24 µM)

Q: Which solubility kinetic does the source give for `Nc1c(Cl)nc(-c2ccccc2)nc1Cl` here?
A: 7.9 µg/mL (≈ 32.9 µM)

Q: With `CN(C(=O)COC(=O)c1ccc(Cl)cc1N)C1CCCCC1` as the molecule, how does the solubility kinetic read?
A: 0.7 µg/mL (≈ 2.16 µM)

Q: For `COc1cc(C)ccc1Oc1nc(-c2ccccc2O)nc2ccccc12`, which solubility kinetic is on record?
A: < 0.4 µg/mL

Q: Which solubility kinetic does the source give for `CCCOc1ccc(S(=O)(=O)Nc2ccccn2)c2ccccc12` here?
A: < 0.4 µg/mL

Q: Which solubility kinetic does the source give for `Cc1ccccc1NC(=O)Cc1nc(COC(=O)c2ccc(NC(N)=O)cc2)cs1` here?
A: 17.6 µg/mL (≈ 41.5 µM)

Q: Which solubility kinetic does the source give for `C=Cn1cc[n+](CC(=O)c2cccs2)c1.[Br-]` here?
A: > 44.9 µg/mL

Q: Which solubility kinetic does the source give for `COC(=O)C(C)NC(=O)C12CC3CC(C1)CC(c1ccc(C)cc1)(C3)C2` (stereo unspecified) here?
A: 30.6 µg/mL (≈ 86.1 µM)

Q: With `C=CCc1cccc2cc(C(=O)N3CCOCC3)c(=O)oc12` as the molecule, how does the solubility kinetic read?
A: 42.8 µg/mL (≈ 143 µM)

Q: Which solubility kinetic does the source give for `CCOC(=O)c1cccc(NC(=O)c2cc3ccccc3o2)c1` here?
A: 0.7 µg/mL (≈ 2.26 µM)

Q: With `Cc1ccc(N(Cc2ccccc2)C(=O)c2ccc(F)cc2)cc1` as the molecule, how does the solubility kinetic read?
A: 9.1 µg/mL (≈ 28.5 µM)

Q: For `CCS(=O)(=O)N1CCC(N2CCC(C)CC2)CC1.O=C(O)C(=O)O`, which solubility kinetic is on record?
A: 53.3 µg/mL

Q: For `Cc1cccc(OCC(=O)Nc2ccccc2F)c1`, which solubility kinetic is on record?
A: 13.4 µg/mL (≈ 51.7 µM)

Q: With `COCCN(C/C=C/c1ccccc1)C/C=C/c1ccccc1` as the molecule, how does the solubility kinetic read?
A: 10.1 µg/mL (≈ 32.9 µM)

Q: With `Cc1ccccc1C1NC(=O)c2ccccc2O1` (stereo unspecified) as the molecule, how does the solubility kinetic read?
A: 18.3 µg/mL (≈ 76.5 µM)

Q: With `Cn1c(=O)c2sccc2n(Cc2cccc(Br)c2)c1=O` as the molecule, how does the solubility kinetic read?
A: 1.4 µg/mL (≈ 3.99 µM)

Q: Which solubility kinetic does the source give for `COc1ccccc1NC(=O)CN1C(=O)COc2ccc(C)cc21` here?
A: 16.2 µg/mL (≈ 49.6 µM)

Q: For `O=C(Nc1ccccc1)C1CCCCN1S(=O)(=O)c1ccccc1` (stereo unspecified), which solubility kinetic is on record?
A: > 51.7 µg/mL

Q: Which solubility kinetic does the source give for `O=C(CCNC(=O)c1ccccc1)NCc1ccccc1F` here?
A: > 45 µg/mL

Q: For `CN1CCN(CCCNC(=O)Nc2ccc([N+](=O)[O-])cc2)CC1`, which solubility kinetic is on record?
A: 44.8 µg/mL (≈ 139 µM)

Q: With `CNc1snc(C)c1C(=O)OCC(=O)N(C)c1ccccc1` as the molecule, how does the solubility kinetic read?
A: > 47.9 µg/mL

Q: Which solubility kinetic does the source give for `CCc1cccc(C)c1N=Cc1c(O)c2ccccc2oc1=O` here?
A: 0.9 µg/mL (≈ 2.93 µM)

Q: Which solubility kinetic does the source give for `Cc1csc(N)n1` here?
A: 10.8 µg/mL (≈ 94.6 µM)

Q: With `CC(Oc1ccccc1)C(=O)Nc1nc(-c2ccncc2)cs1` (stereo unspecified) as the molecule, how does the solubility kinetic read?
A: 2.6 µg/mL (≈ 7.99 µM)

Q: For `O=C(c1ccc(S(=O)(=O)Nc2ccccc2Cl)cc1)N1CCCC1`, which solubility kinetic is on record?
A: > 54.7 µg/mL

Q: For `CC(Oc1ccc(Cl)cc1)C(=O)Nc1ccccc1N1CCOCC1` (stereo unspecified), which solubility kinetic is on record?
A: 10.1 µg/mL (≈ 28 µM)

Q: Which solubility kinetic does the source give for `COc1ccc(NC(=O)CCn2ccnc2)c(OC)c1` here?
A: 41.1 µg/mL (≈ 149 µM)

Q: With `Cc1cc(C)cc(C(N)=Nc2cccc(C#N)c2)c1` as the molecule, how does the solubility kinetic read?
A: > 37.4 µg/mL

Q: For `COc1ccc(/C=C/C2=Nc3ccccc3NC(C)(C)C2)cc1OC`, which solubility kinetic is on record?
A: 43 µg/mL (≈ 128 µM)

Q: With `O=C1CCCN1CCCNC(=S)Nc1ccccc1Cl` as the molecule, how does the solubility kinetic read?
A: 38.4 µg/mL (≈ 123 µM)

Q: For `CC1CCC(NC(=O)CSc2nncn2C)CC1` (stereo unspecified), which solubility kinetic is on record?
A: > 40.3 µg/mL

Q: With `NC(=O)c1oc2ccccc2c1NC(=O)C1COc2ccccc2O1` (stereo unspecified) as the molecule, how does the solubility kinetic read?
A: < 0.4 µg/mL

Q: Which solubility kinetic does the source give for `Cc1cc(F)ccc1S(=O)(=O)Nc1ccc(C(=O)N2CCCCC2)cc1` here?
A: > 56.5 µg/mL

Q: With `Cc1ccc(Nc2nc(C)cc(C)c2C(N)=O)c(C)c1` as the molecule, how does the solubility kinetic read?
A: > 40.4 µg/mL

Q: Which solubility kinetic does the source give for `Cc1nn(CC(=O)NC2(C)CCS(=O)(=O)C2)c(C)c1S(=O)(=O)N(C)C` (stereo unspecified) here?
A: > 58.9 µg/mL

Q: With `NS(=O)(=O)c1ccc(NC(=O)CCC(=O)N2CCOCC2)cc1` as the molecule, how does the solubility kinetic read?
A: > 51.2 µg/mL

Q: For `COc1ccc(/C=N/OCc2ccccc2C#N)c(OC)c1`, which solubility kinetic is on record?
A: 0.4 µg/mL (≈ 1.35 µM)

Q: With `Nc1nc(NCc2ccc(Cl)cc2)nc(NCCO)c1[N+](=O)[O-]` as the molecule, how does the solubility kinetic read?
A: 45.9 µg/mL (≈ 135 µM)

Q: With `O=C(COc1ccccc1F)Nc1ccc2c(c1)OCCO2` as the molecule, how does the solubility kinetic read?
A: 14.1 µg/mL (≈ 46.5 µM)

Q: Which solubility kinetic does the source give for `O=c1cc(CCl)nc2scc(-c3ccccc3)n12` here?
A: > 41.5 µg/mL

Q: With `CC(=O)c1sc(C(C)(C)C)cc1NC(=O)/C=C/C(=O)O` as the molecule, how does the solubility kinetic read?
A: 40 µg/mL (≈ 135 µM)

Q: For `Cc1ccccc1OCCCn1c(CO)nc2ccccc21`, which solubility kinetic is on record?
A: 12.9 µg/mL (≈ 43.5 µM)

Q: Which solubility kinetic does the source give for `O=C1/C(=C/c2ccncc2)CCc2ccccc21` here?
A: 34.2 µg/mL (≈ 145 µM)

Q: For `COc1ccc(S(=O)(=O)N2CCOCC2)cc1NC(=O)COc1ccc2ccc(=O)oc2c1`, which solubility kinetic is on record?
A: 6 µg/mL (≈ 12.6 µM)

Q: For `CCc1nnc(SC(C)C(=O)Nc2nccs2)n1C` (stereo unspecified), which solubility kinetic is on record?
A: > 44.6 µg/mL

Q: For `O=C(C1CCN(S(=O)(=O)c2ccc(Cl)cc2)CC1)N1CCCC1`, which solubility kinetic is on record?
A: 35.9 µg/mL (≈ 101 µM)

Q: Which solubility kinetic does the source give for `CN1CCCN(C(=O)COc2ccc(F)cc2F)CC1` here?
A: > 42.6 µg/mL

Q: For `O=C(NCc1ccc2c(c1)CCO2)Nc1cccc(C(F)(F)F)c1`, which solubility kinetic is on record?
A: 1 µg/mL (≈ 2.97 µM)

Q: For `O=C(O)CN1C(=O)CSC1=S`, which solubility kinetic is on record?
A: > 28.7 µg/mL

Q: Which solubility kinetic does the source give for `Cc1cccc(N2C(=O)C3C4C=CC(CC4)C3C2=O)c1` (stereo unspecified) here?
A: 33.5 µg/mL (≈ 125 µM)

Q: For `CCOc1ccccc1NC(=O)Nc1ccc2c(c1)CCC2`, which solubility kinetic is on record?
A: < 0.3 µg/mL

Q: Which solubility kinetic does the source give for `CCCCOC(=O)c1ccc(NC(=O)C(=O)NCCN(C)C)cc1` here?
A: 45.7 µg/mL (≈ 136 µM)

Q: For `CCn1c(=S)[nH]c2cc(Cl)ccc21`, which solubility kinetic is on record?
A: > 31.9 µg/mL

Q: For `c1ccc(-c2nccc3ccccc23)cc1`, which solubility kinetic is on record?
A: 7.3 µg/mL (≈ 35.6 µM)

Q: Which solubility kinetic does the source give for `COc1ccc(CNC(=O)C2CCN(C(=O)c3ccccc3)CC2)cc1` here?
A: > 52.9 µg/mL

Q: For `NC(=O)c1ccccc1NC(=O)Nc1ccc(F)c(Cl)c1`, which solubility kinetic is on record?
A: 2.1 µg/mL (≈ 6.82 µM)

Q: Which solubility kinetic does the source give for `CC(=O)c1ccc(OCCCC(=O)Nc2cccc(S(=O)(=O)N3CCCCCC3)c2)cc1` here?
A: 10.4 µg/mL (≈ 22.7 µM)

Q: For `CC(C)Sc1nc2c(c(=O)[nH]c(=O)n2C)n1Cc1ccccc1`, which solubility kinetic is on record?
A: 2.8 µg/mL (≈ 8.47 µM)

Q: Which solubility kinetic does the source give for `COc1ccc(CCNC(=O)/C=C/C(=O)O)cc1` here?
A: > 37.4 µg/mL

Q: For `Cc1ccc(NC(=O)Cn2cc(C=O)c3ccccc32)cc1C`, which solubility kinetic is on record?
A: < 0.3 µg/mL

Q: Which solubility kinetic does the source give for `COC(=O)c1c(-c2ccccc2)c[nH]c1C` here?
A: 32 µg/mL (≈ 149 µM)

Q: With `Cc1[nH]c(=O)c(C#N)c(C)c1CSc1ncccn1` as the molecule, how does the solubility kinetic read?
A: > 40.8 µg/mL

Q: For `CCCN(CCC)S(=O)(=O)c1cc2c3c(c1)CCN3C(=O)CC2`, which solubility kinetic is on record?
A: > 50.5 µg/mL

Q: For `Cc1nc2ccccc2c(=O)n1NC(=O)c1ccccc1F`, which solubility kinetic is on record?
A: > 44.6 µg/mL

Q: Which solubility kinetic does the source give for `COc1ccc(C(=O)NC(=S)NC(C)c2ccccc2)cc1` (stereo unspecified) here?
A: 2.6 µg/mL (≈ 8.27 µM)

Q: Which solubility kinetic does the source give for `CC1CCCC(C)N1C(=O)COc1ccc([N+](=O)[O-])cc1Cl` (stereo unspecified) here?
A: > 49 µg/mL

Q: Which solubility kinetic does the source give for `NC(=O)C1CCN(C(=O)Nc2csc3ccccc23)CC1` here?
A: 42 µg/mL (≈ 138 µM)

Q: Which solubility kinetic does the source give for `O=C(c1cccc(C(F)(F)F)c1)N1CCOc2ccccc21` here?
A: 37.5 µg/mL (≈ 122 µM)

Q: For `CC1CCCC(NC(=O)COC(=O)/C=C/c2ccc([N+](=O)[O-])cc2)C1C` (stereo unspecified), which solubility kinetic is on record?
A: 4.8 µg/mL (≈ 13.3 µM)

Q: With `COc1ccc(C(=O)N2CCN=C2SC)cc1` as the molecule, how does the solubility kinetic read?
A: > 37.5 µg/mL

Q: For `CCS(=O)(=O)Nc1cc2c3c(c1)CCC(=O)N3CCC2`, which solubility kinetic is on record?
A: > 44.2 µg/mL

Q: Which solubility kinetic does the source give for `COc1ccc2nc(Cl)cc(Cl)c2c1` here?
A: 0.9 µg/mL (≈ 3.95 µM)

Q: With `COc1cccc(C(=O)NN2C(=S)N(c3ccccc3)C(=O)C2CC(N)=O)c1` (stereo unspecified) as the molecule, how does the solubility kinetic read?
A: > 59.8 µg/mL

Q: For `O=C(Nc1nccs1)c1ccc(COc2ccccc2Cl)o1`, which solubility kinetic is on record?
A: 0.9 µg/mL (≈ 2.69 µM)
